Consider eleven compounds from patent US20260078122A1, “INDAZOLE COMPOUNDS AS PKMYT1 KINASE INHIBITORS” (Hoffmann-La Roche Inc., priority 2023, published 2026).

A word on the IC50: it is the concentration at which inhibition is half-maximal.

Data set [1] is described as follows: GSH adduct screening assay. It is filed as in vitro ADME, human. Further details: key: GSH adducts found (Flag); or not (No Flag). The note with it: 20 μM compound, HLM 1 mg/ml, 5 mM GSH, 1 mM NADPH, 60 minutes at 37° C.
Data set [2] can be described thus: Human microsome stability assay. The conditions noted are these: 1 μM compound, 0.5 mg/mL liver microsomal protein, 1 mM NADPH, 37° C., 0-30 minutes.
Data set [3] can be described thus: Human hepatocyte stability assay. The conditions noted are these: 1 μM compound, 1*10^6 cells/mL, 2-120 min. It is filed as in vitro ADME.
The conditions of data set [4]: microsomes, pH 7.4.
For data set [5], the target named is T1, recombinant human Myt1 (full length PKMYT1) (Homo sapiens, UniProt Q99640).
T1 sequence (Q99640 1-499): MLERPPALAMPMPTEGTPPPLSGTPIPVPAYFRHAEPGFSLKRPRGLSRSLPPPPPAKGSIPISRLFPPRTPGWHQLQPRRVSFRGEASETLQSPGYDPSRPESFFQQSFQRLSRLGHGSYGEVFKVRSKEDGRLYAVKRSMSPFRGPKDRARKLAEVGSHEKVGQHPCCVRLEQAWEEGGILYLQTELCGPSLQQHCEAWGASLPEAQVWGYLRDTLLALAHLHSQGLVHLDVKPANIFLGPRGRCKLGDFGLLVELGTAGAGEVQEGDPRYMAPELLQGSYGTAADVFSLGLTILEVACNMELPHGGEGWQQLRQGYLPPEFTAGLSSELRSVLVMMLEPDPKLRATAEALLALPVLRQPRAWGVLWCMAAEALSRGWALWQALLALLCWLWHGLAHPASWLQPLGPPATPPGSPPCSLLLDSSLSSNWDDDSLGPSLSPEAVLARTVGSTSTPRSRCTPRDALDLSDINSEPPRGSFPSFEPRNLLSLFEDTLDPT
In words: ADP-Glo assay (Myt1 kinase activity). A general note: ADP-Glo first removes unused ATP, then detects ADP through luciferase.

The structures appear in SMILES notation. Where two headings read alike, the source gives them in different places.

`Cc1cc2[nH]c(=O)c(N)c(-c3ccc(F)c4[nH]ncc34)c2nc1Cl` [Example 003, 3-Amino-6-chloro-4-(7-fluoro-1H-indazol-4-yl)-7-methyl-1H-1,5-naphthyridin-2-one]: the GSH adduct entry in data set [1] was “No Flag”. Besides, the “Clearance of Human microsome” value in data set [2] worked out at 8.88 mL/min/kg.
Take `Nc1c(-c2ccc(F)c3[nH]ncc23)c2ncc(C3CC3)cc2[nH]c1=O` [Example 015, 3-Amino-7-cyclopropyl-4-(7-fluoro-1H-indazol-4-yl)-1H-1,5-naphthyridin-2-one]: in data set [3], the “Clearance of Human hepatocyte (μL/min/10^6 cell)” value (shortened to “Clearance of Human hepatocyte”) is reported as 2.6 μL/min/10^6 cell. For the same compound, the GSH adduct result in data set [1] was “No Flag”. Further, the “Clearance of Human microsome” value in data set [2] stood at 7.03 mL/min/kg.
On to `Cc1cc2[nH]c(=O)c(N)c(-c3ccc(F)c4[nH]ncc34)c2nc1N1CC2(COC2)C1` [Example 026, 3-Amino-4-(7-fluoro-1H-indazol-4-yl)-7-methyl-6-(2-oxa-6-azaspiro[3.3]heptan-6-yl)-1H-1,5-naphthyridin-2-one], for which, in data set [4], the “Clearance of Human microsome” value is reported as 8.87 mL/min/kg.
`C#Cc1cnc2c(-c3ccc(F)c4[nH]ncc34)c(N)c(=O)[nH]c2c1C` [Example 124, 3-Amino-7-ethynyl-4-(7-fluoro-1H-indazol-4-yl)-8-methyl-1H-1,5-naphthyridin-2-one]: the GSH adduct entry in data set [1] is reported as “No Flag”. Also, the IC50 in data set [5] was under 10 nM.
Take `COc1cnc2c(-c3ccc(F)c4[nH]ncc34)c(N)c(=O)[nH]c2c1C` [Example 136, 3-Amino-4-(7-fluoro-1H-indazol-4-yl)-7-methoxy-8-methyl-1H-1,5-naphthyridin-2-one]: the “Clearance of Human hepatocyte” value in data set [3] is on record as 1.4 μL/min/10^6 cell. Besides, in data set [2], the “Clearance of Human microsome” value was 6.15 mL/min/kg. Also, the IC50 in data set [5] was 17.3 nM.
For `Cc1cnc2c(-c3ccc(Cl)c4[nH]ncc34)c(N)c(=O)[nH]c2c1C` [Example 146, 3-Amino-4-(7-chloro-1H-indazol-4-yl)-7,8-dimethyl-1H-1,5-naphthyridin-2-one] the same measures were 1.2 μL/min/10^6 cell, 6.15 mL/min/kg and under 10 nM.
Turning to `Cc1nc(Cl)c2c(-c3ccc(F)c4[nH]ncc34)c(N)c(=O)[nH]c2c1C` [Example 160, 3-Amino-5-chloro-4-(7-fluoro-1H-indazol-4-yl)-7,8-dimethyl-1H-1,6-naphthyridin-2-one], the GSH adduct result in data set [1] is reported as “No Flag”. In addition, the IC50 in data set [5] was found to be 11.5 nM.
In the case of `N#Cc1nc(C2CC2)cc2[nH]c(=O)c(N)c(-c3ccc(F)c4[nH]ncc34)c12` [Example 167, 3-Amino-7-cyclopropyl-4-(7-fluoro-1H-indazol-4-yl)-2-oxo-1H-1,6-naphthyridine-5-carbonitrile], the “Clearance of Human hepatocyte” value in data set [3] is under 1 μL/min/10^6 cell. Besides, in data set [2], the “Clearance of Human microsome” value worked out at 6.80 mL/min/kg. Further, the 50% inhibitory concentration (IC50) in data set [5] was 14.5 nM.
For `COc1cnc(C)c2[nH]c(=O)c(N)c(-c3ccc(F)c4[nH]ncc34)c12` [Example 173, 3-Amino-4-(7-fluoro-1H-indazol-4-yl)-5-methoxy-8-methyl-1H-1,7-naphthyridin-2-one] the same measures were under 1 μL/min/10^6 cell, 6.15 mL/min/kg and 15.2 nM.
For `Cc1ncc(OCC(F)(F)F)c2c(-c3ccc(F)c4[nH]ncc34)c(N)c(=O)[nH]c12` [Example 183, 3-Amino-4-(7-fluoro-1H-indazol-4-yl)-8-methyl-5-(2,2,2-trifuoroethoxy)-1H-1,7-naphthyridin-2-one] the same measures were under 1 μL/min/10^6 cell, 6.20 mL/min/kg and 13.4 nM.
For `CCOc1cnc(C)c2[nH]c(=O)c(N)c(-c3ccc(F)c4[nH]ncc34)c12` [Example 184, 3-Amino-5-ethoxy-4-(7-fluoro-1H-indazol-4-yl)-8-methyl-1H-1,7-naphthyridin-2-one] the same measures were 1.3 μL/min/10^6 cell, 6.20 mL/min/kg and under 10 nM.
